Laboratory results published in ChEMBL document CHEMBL3046240, “A useful new insecticide bioassay using first-instar larvae of a net-spinning caddisfly, Cheumatopsyche brevilineata (Trichoptera: Hydropsychidae)” (J Pestic Sci, 2009).
Converted amounts (≈) assume the structure as drawn.

Tests used:
[1] = tested on: Daphnia magna; assay: Insecticidal activity against Daphnia magna after 48 hr; format: functional, organism-based
[2] = tested on: Cheumatopsyche; assay: Insecticidal activity against first-instar larvae of Cheumatopsyche brevilineata after 48 hr; format: functional, organism-based
[3] = Octanol-water partition coefficient, log KOW of the compound
[4] = tested on: Daphnia pulex; assay: Insecticidal activity against Daphnia pulex after 48 hr; format: functional, organism-based

| SMILES | EC50 [1] | EC50 [2] | logP [3] | LC50 ([1]; Daphnia magna, 48 h) | EC50 [4] | log KOW [3] |
| --- | --- | --- | --- | --- | --- | --- |
| CNC(=O)Oc1cc(C)cc(C)c1 | 30 ng/mL (≈ 0.167 µM) | 58.9 ng/mL (≈ 0.329 µM) | 2.3 |  |  |  |
| CCN(Cc1ccc(Cl)nc1)/C(=C/[N+](=O)[O-])NC | > 100000 ng/mL | 45 ng/mL (≈ 0.166 µM) |  |  |  |  |
| C/C(=N\C#N)N(C)Cc1ccc(Cl)nc1 | 50000 ng/mL (≈ 225 µM) | 3.35 ng/mL (≈ 0.015 µM) | 0.8 |  |  |  |
| CCOC(=O)CCN(SN(C)C(=O)Oc1cccc2c1OC(C)(C)C2)C(C)C [BENFURACARB] | 9.9 ng/mL (≈ 0.0241 µM) | 6.66 ng/mL (≈ 0.0162 µM) | 4.22 |  |  |  |
| CN(C)C(CSS(=O)(=O)c1ccccc1)CSS(=O)(=O)c1ccccc1 [BENSULTAP] |  | 148 ng/mL (≈ 0.343 µM) | 2.28 | 200 ng/mL (≈ 0.463 µM) |  |  |
| CC(C)N1C(=O)N(c2ccccc2)CS/C1=N\C(C)(C)C [BUPROFEZIN] | > 420 ng/mL | 181 ng/mL (≈ 0.593 µM) | 4.3 |  |  |  |
| CNC(=O)Oc1cccc2ccccc12 [CARBARIL] | 5.6 ng/mL (≈ 0.0278 µM) | 21.4 ng/mL (≈ 0.106 µM) | 1.85 |  |  |  |
| CCCCN(CCCC)SN(C)C(=O)Oc1cccc2c1OC(C)(C)C2 [CARBOSULFAN] |  | 1.49 ng/mL (≈ 0.00392 µM) | 5.4 |  | 1.03 ng/mL (≈ 0.00271 µM) |  |
| CN(C)C(CSC(N)=O)CSC(N)=O.Cl [CARTAP HYDROCHLORIDE] | 65 ng/mL | 3.7 ng/mL |  |  |  |  |
| CN/C(=N\[N+](=O)[O-])NCc1cnc(Cl)s1 [CLOTHIANIDINE] | > 119000 ng/mL | 4.44 ng/mL (≈ 0.0178 µM) |  |  |  |  |
| COP(=O)(OC)OC=C(Cl)Cl [DICHLORVOS] | 0.2 ng/mL (≈ 0.000905 µM) | 1.17 ng/mL (≈ 0.00529 µM) | 1.9 |  |  |  |
| CCOP(=S)(OCC)Oc1cc(C)nc(C(C)C)n1 [DIMPYLATE] | 0.87 ng/mL (≈ 0.00286 µM) | 1.77 ng/mL (≈ 0.00582 µM) |  |  |  |  |
| CN/C(=N/CC1CCOC1)N[N+](=O)[O-] (stereo unspecified) [DINOTEFURAN] | > 968300 ng/mL | 10.4 ng/mL (≈ 0.0514 µM) |  |  |  | -0.644 |
| CCOc1ccc(C(C)(C)COCc2cccc(Oc3ccccc3)c2)cc1 [ETOFENPROX] | 0.57 ng/mL (≈ 0.00151 µM) | 0.116 ng/mL (≈ 0.000308 µM) |  |  |  |  |
| COP(=S)(OC)Oc1ccc([N+](=O)[O-])c(C)c1 [FENITROTHION] | 11 ng/mL (≈ 0.0397 µM) | 7.78 ng/mL (≈ 0.0281 µM) | 3.43 |  |  |  |
| CCC(C)c1ccccc1OC(=O)NC (stereo unspecified) [FENOBUCARB] |  | 9.48 ng/mL (≈ 0.0457 µM) | 2.79 |  | 10.3 ng/mL (≈ 0.0497 µM) |  |
| COP(=S)(OC)Oc1ccc(SC)c(C)c1 [FENTHION] | 5.2 ng/mL (≈ 0.0187 µM) | 2.14 ng/mL (≈ 0.00769 µM) |  |  |  |  |
| N#Cc1nn(-c2c(Cl)cc(C(F)(F)F)cc2Cl)c(N)c1[S+]([O-])C(F)(F)F (stereo unspecified) [FIPRONIL] | 190 ng/mL (≈ 0.435 µM) | 0.153 ng/mL (≈ 0.00035 µM) |  |  |  |  |
| O=[N+]([O-])/N=C1\NCCN1Cc1ccc(Cl)nc1 [IMIDACLOPRID] | 85200 ng/mL (≈ 333 µM) | 4.22 ng/mL (≈ 0.0165 µM) |  |  |  |  |
| CCOC(=O)CC(SP(=S)(OC)OC)C(=O)OCC (stereo unspecified) [MALATHION] | 1 ng/mL (≈ 0.00303 µM) | 1.81 ng/mL (≈ 0.00548 µM) | 2.75 |  |  |  |
| CNC(=O)ON=C(C)SC [METHOMYL] | 8.8 ng/mL (≈ 0.0542 µM) | 68.1 ng/mL (≈ 0.42 µM) | 0.093 |  |  |  |
| CC1(C)C(C=C(Cl)Cl)C1C(=O)OCc1cccc(Oc2ccccc2)c1 (stereo unspecified) [PERMETHRIN] | 0.6 ng/mL (≈ 0.00153 µM) | 0.205 ng/mL (≈ 0.000524 µM) |  |  |  | 6.1 |
| CCOC(=O)C(SP(=S)(OC)OC)c1ccccc1 (stereo unspecified) [PHENTHOATE] | 0.34 ng/mL (≈ 0.00106 µM) | 0.88 ng/mL (≈ 0.00275 µM) |  |  |  |  |
| CC1=NNC(=O)N(/N=C/c2cccnc2)C1 [PYMETROZINE] | 87000 ng/mL (≈ 400 µM) | 112000 ng/mL (≈ 516 µM) |  |  |  |  |
| CCOc1ccc([Si](C)(C)CCCc2ccc(F)c(Oc3ccccc3)c2)cc1 [SILAFLUOFEN] | 1.2 ng/mL (≈ 0.00294 µM) | 0.6 ng/mL (≈ 0.00147 µM) |  |  |  |  |
| CCc1ccc(C(=O)NN(C(=O)c2cc(C)cc(C)c2)C(C)(C)C)cc1 [TEBUFENOZIDE] | 3800 ng/mL (≈ 10.8 µM) | > 830 ng/mL |  |  |  |  |
| N#C/N=C1\SCCN1Cc1ccc(Cl)nc1 [THIACLOPRID] | 22520 ng/mL (≈ 89.1 µM) | 5.27 ng/mL (≈ 0.0209 µM) |  |  |  |  |
| CN(C)C1CSSSC1.O=C(O)C(=O)O [THIOCYCLAM HYDROGEN OXALATE] |  | 5.76 ng/mL | -0.07 |  | 2010 ng/mL |  |
| CS/C(C)=N\OC(=O)N(C)SN(C)C(=O)O/N=C(\C)SC [THIODICARB] | 27 ng/mL (≈ 0.0762 µM) | 145 ng/mL (≈ 0.409 µM) | 1.62 |  |  |  |
| COP(=O)(OC)C(O)C(Cl)(Cl)Cl (stereo unspecified) [TRICHLORFON] | 0.36 ng/mL (≈ 0.0014 µM) | 2.02 ng/mL (≈ 0.00785 µM) |  |  |  |  |
